This note sets out measurements from patent US20260015344A1, “PAN-KRAS INHIBITORS” (Mirati Therapeutics, Inc., priority 2022, published 2026).

A word on the IC50: it is the concentration that inhibits the measured activity by half.

The target of test [1] is T1, KRas^G12D (Homo sapiens, UniProt P01116, G12D).
T1 construct: corresponding to amino acids 1-169, produced at Accelegan Inc; biotin (biotinylated); purchased Accelegan Inc
Put plainly: KRas Binding Assay (TR-FRET displacement), KRas G12D. The note with it: TR-FRET tracer displacement. The method, then: (§1) This Example illustrates that exemplary compounds of the present invention bind to KRas and are capable of displacing a labeled tracer ligand occupying the KRas binding site. KRas^WT, KRas^G12A, KRas^G12C, KRas^G12D, KRas^G12R, KRas^G12S, KRas^G12V, KRas^G13D, or KRas^Q61H was used in the assay.
(§2) The ability of a compound to bind to KRas was measured using a TR-FRET displacement assay. Biotinylated KRas (corresponding to amino acids 1-169, produced at Accelegan Inc.) was incubated with custom made Cy5 labelled tracer, terbium streptavidin (Cisbio Inc.) and compound (1% DMSO final) in buffer (50 mM HEPES, pH 7.5, 5 mM MgCl2, 0.005% Tween-20 and 1 mM DTT). After a 60-minute incubation at room temperature, the reaction was measured using a BMG LABTECH CLARIO star Plus via TR-FRET. […] The POC values were fit to a 4-parameter IC50 equation and the IC50 value reported.
In general terms: Time-resolved FRET reads energy transfer from a long-lived donor to a nearby acceptor.

The target of test [2] is T2, KRas^Q61H (Homo sapiens, UniProt P01116, Q61H).
T2 construct: corresponding to amino acids 1-169, produced at Accelegan Inc; biotin (biotinylated); purchased Accelegan Inc
Put plainly: KRas Binding Assay (TR-FRET displacement), KRas Q61H. The note with it: TR-FRET tracer displacement. The method, then: as §1, §2

Test [3] concerns the target T3, KRas^G12V (Homo sapiens, UniProt P01116, G12V).
T3 construct: corresponding to amino acids 1-169, produced at Accelegan Inc; biotin (biotinylated); purchased Accelegan Inc
Put plainly: KRas Binding Assay (TR-FRET displacement), KRas G12V. The note with it: TR-FRET tracer displacement. The method, then: as §1, §2

Test [4] deals with T4, KRas^G12C (Homo sapiens, UniProt P01116, G12C).
T4 construct: corresponding to amino acids 1-169, produced at Accelegan Inc; biotin (biotinylated); purchased Accelegan Inc
The experiment in a line: KRas Binding Assay (TR-FRET displacement), KRas G12C. As to conditions: TR-FRET tracer displacement. Here is the method:
as §1, §2

In test [5] the target is T5, KRas^G12A (Homo sapiens, UniProt P01116, G12A).
T5 construct: corresponding to amino acids 1-169, produced at Accelegan Inc; biotin (biotinylated); purchased Accelegan Inc
The experiment in a line: KRas Binding Assay (TR-FRET displacement), KRas G12A. As to conditions: TR-FRET tracer displacement. Here is the method:
as §1, §2

Test [6] has as its target T6, KRas^G13D (Homo sapiens, UniProt P01116, G13D).
T6 construct: corresponding to amino acids 1-169, produced at Accelegan Inc; biotin (biotinylated); purchased Accelegan Inc
The experiment in a line: KRas Binding Assay (TR-FRET displacement), KRas G13D. As to conditions: TR-FRET tracer displacement. Here is the method:
as §1, §2

For test [7], the target named is T7, KRas^G12S (Homo sapiens, UniProt P01116, G12S).
T7 construct: corresponding to amino acids 1-169, produced at Accelegan Inc; biotin (biotinylated); purchased Accelegan Inc
Put plainly: KRas Binding Assay (TR-FRET displacement), KRas G12S. The note with it: TR-FRET tracer displacement. The method, then: as §1, §2

Test [8] addresses T8, KRas^WT (Homo sapiens, UniProt P01116).
T8 construct: corresponding to amino acids 1-169, produced at Accelegan Inc; biotin (biotinylated); purchased Accelegan Inc
Put plainly: KRas Binding Assay (TR-FRET displacement), KRas WT. The note with it: TR-FRET tracer displacement. Here is the method: as §1, §2

The target of test [9] is T9, KRas^G12R (Homo sapiens, UniProt P01116, G12R).
T9 construct: corresponding to amino acids 1-169, produced at Accelegan Inc; biotin (biotinylated); purchased Accelegan Inc
Put plainly: KRas Binding Assay (TR-FRET displacement), KRas G12R. As to conditions: TR-FRET tracer displacement. The method, then:
as §1, §2

The subject of test [10] is KRas-mediated Phosphorylation of ERK in AsPC-1 cells. Put plainly: HTRF pERK assay, AsPC-1 cells. The test is classed as cell-based. As to conditions: Homo sapiens, ASPC1, 3 hrs compound incubation, read-out: Inhibition (HTRF IC50 nM) of KRas-mediated Phosphorylation of ERK, AsPC-1. Here is the method:
(§3) • Day 1: Seed 6,000 cells/well-25 μl/well in 384-well white solid bottom plate; RPM1_10% FBS.
(§4) • 1. To harvest cells from flask using 0.05% Trypsin/EDTA solution. Add 10 mL of media to stop trypsinizing. Pipette the cells into a conical bottom 50 mL centrifuge tube and centrifuge 5 min×1000 rpm. • 2. Re-suspend the cell pellet in media, take a cell count, and then adjust the cell density using fresh media. • 3. Seed 6,000 cells into cell culture plate with 50 μL media. The • 4. Incubate cell plate overnight in a 37° C., 5% CO2 incubator.
(§5) • 1. Use Tecan to complete the compound addition. Compounds start from 10 uM top, 3-fold dilution, and 10 doses. The final DMSO concentration is 0.8%. Dispensed 0.2 uM Trametinib as Min control. • 2. Incubate cell plate for 3 hrs in the incubator. Detection with Cisbio pERK HTRF Kit • 1. Dilute 1 volume of 4× lysis buffer with 3 volumes of deionized water. Then, add 100× the blocking reagent. Keep lysis buffer on the ice. • 2. At the end of the compound treatment, flick-off the media. • 3. Add 35 μL of lysis buffer per well using a Multidrop Combi. Then place on a plate agitator shaking at 300 rpm at 4° C. for 40 mins. • 4. Make up the HTRF antibody buffer. For each assay plate, mix 50 μL of d2-conjugate antibody with 950 μL of detection buffer. Similarly, mix 50 μL of Cryptate antibody with 950 μL of detection buffer. Then mix the two diluted antibodies together. • 5. Dispense 3.4 μL the antibody buffer to wells of an empty assay plate. Seal the plate and centrifuge plate 30 sec×1000 rpm. • 6. At the end of the 4° C. lysis, centrifuge the lysate plates 3 mins×1500 rpm. • 7. Use the Bravo to transfer 13.6 μL of lysate from cell culture plate to assay plate. Then incubate assay plate for 2 hrs at room temperature. • 8. At the end of incubation, read plate on the Envision after centrifuging plate 30 sec×1000 rpm.

The subject of test [11] is KRas-mediated Phosphorylation of ERK in H727 cells. The experiment in a line: HTRF pERK assay, H727 cells. The test is classed as cell-based. As to conditions: Homo sapiens, NCI-H727, 3 hrs compound incubation, read-out: Inhibition (HTRF IC50 nM) of KRas-mediated Phosphorylation of ERK, H727. The method, then:
as §3, §4, §5

T6 sequence (P01116 1-169 isoform P01116-2 G13D): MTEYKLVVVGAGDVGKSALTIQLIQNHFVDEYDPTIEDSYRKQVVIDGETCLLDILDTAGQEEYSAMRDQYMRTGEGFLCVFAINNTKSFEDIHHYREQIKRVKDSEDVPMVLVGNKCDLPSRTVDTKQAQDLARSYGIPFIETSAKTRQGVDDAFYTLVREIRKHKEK
T1 sequence (P01116 1-169 isoform P01116-2 G12D): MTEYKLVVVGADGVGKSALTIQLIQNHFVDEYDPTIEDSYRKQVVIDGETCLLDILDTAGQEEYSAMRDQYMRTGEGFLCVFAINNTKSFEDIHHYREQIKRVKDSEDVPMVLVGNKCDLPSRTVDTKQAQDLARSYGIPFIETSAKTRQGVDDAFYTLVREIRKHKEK
T9 sequence (P01116 1-169 isoform P01116-2 G12R): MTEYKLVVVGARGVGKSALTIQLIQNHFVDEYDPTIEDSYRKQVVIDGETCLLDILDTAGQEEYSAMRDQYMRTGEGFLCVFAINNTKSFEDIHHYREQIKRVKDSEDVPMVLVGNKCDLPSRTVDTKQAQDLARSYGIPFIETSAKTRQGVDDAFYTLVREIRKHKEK
T4 sequence (P01116 1-169 isoform P01116-2 G12C): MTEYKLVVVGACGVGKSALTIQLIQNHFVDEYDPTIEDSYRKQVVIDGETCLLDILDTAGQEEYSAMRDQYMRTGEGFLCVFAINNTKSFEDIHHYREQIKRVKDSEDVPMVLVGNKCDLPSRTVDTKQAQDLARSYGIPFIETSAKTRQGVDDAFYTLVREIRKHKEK
T3 sequence (P01116 1-169 isoform P01116-2 G12V): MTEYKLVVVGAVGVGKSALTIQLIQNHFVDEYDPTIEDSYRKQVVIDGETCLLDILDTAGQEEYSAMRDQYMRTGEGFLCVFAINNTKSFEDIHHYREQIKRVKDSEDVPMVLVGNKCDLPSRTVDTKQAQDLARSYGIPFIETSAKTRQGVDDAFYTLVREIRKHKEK
T2 sequence (P01116 1-169 isoform P01116-2 Q61H): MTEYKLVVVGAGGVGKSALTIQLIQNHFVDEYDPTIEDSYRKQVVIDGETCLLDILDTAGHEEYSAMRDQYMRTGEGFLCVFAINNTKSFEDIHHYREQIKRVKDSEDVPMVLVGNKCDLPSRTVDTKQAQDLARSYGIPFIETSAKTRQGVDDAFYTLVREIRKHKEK
T7 sequence (P01116 1-169 isoform P01116-2 G12S): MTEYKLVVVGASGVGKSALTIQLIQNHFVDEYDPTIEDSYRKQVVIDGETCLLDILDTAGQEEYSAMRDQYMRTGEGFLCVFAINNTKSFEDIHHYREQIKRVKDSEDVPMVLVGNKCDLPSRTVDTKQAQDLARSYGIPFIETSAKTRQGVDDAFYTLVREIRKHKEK
T8 sequence (P01116 1-169 isoform P01116-2): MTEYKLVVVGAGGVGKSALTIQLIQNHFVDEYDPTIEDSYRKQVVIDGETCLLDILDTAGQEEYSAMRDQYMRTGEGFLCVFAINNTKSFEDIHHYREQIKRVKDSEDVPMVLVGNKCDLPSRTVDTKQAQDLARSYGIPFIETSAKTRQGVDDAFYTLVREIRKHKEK
T5 sequence (P01116 1-169 isoform P01116-2 G12A): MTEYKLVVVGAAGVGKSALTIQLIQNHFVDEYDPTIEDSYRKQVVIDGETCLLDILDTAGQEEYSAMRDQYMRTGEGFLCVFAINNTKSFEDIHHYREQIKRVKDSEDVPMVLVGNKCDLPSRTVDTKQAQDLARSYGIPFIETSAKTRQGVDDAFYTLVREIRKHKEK

For `C[C@H](Oc1nc(-c2noc(C3(C)CCCc4sc(N)c(C#N)c43)n2)cc(N2CCCC3(C2)NC(=O)NC3=O)n1)[C@@H]1CCCN1C` (stereo partly drawn) [Example 2, 2-amino-4-(3-(6-(2,4-dioxo-1,3,7-triazaspiro[4.5]decan-7-yl)-2-((S)-1-((S)-1-methylpyrrolidin-2-yl)ethoxy)pyrimidin-4-yl)-1,2,4-oxadiazol-5-yl)-4-methyl-4,5,6,7-tetrahydrobenzo[b]thiophene-3-carbonitrile], the IC50 is 18 nM in test [1]; 36 nM in test [2]; 6 nM in [3]; 54 nM in test [4]; 49 nM in test [5]; 37 nM in test [6]. In addition, the IC50 is 41 nM in test [7], 14 nM in [8] and 4 nM in [9].
Turning to `C[C@H](Oc1nc(-c2noc(C3(C)CCCc4sc(N)c(C#N)c43)n2)cc(N2CCCC3(CNS(=O)(=O)N3)C2)n1)[C@@H]1CCCN1C` (stereo partly drawn) [Example 4, 2-amino-4-(3-(6-(2,2-dioxido-2-thia-1,3,7-triazaspiro[4.5]decan-7-yl)-2-((S)-1-((S)-1-methylpyrrolidin-2-yl)ethoxy)pyrimidin-4-yl)-1,2,4-oxadiazol-5-yl)-4-methyl-4,5,6,7-tetrahydrobenzo[b]thiophene-3-carbonitrile], the IC50 is 6 nM in [1]; 26 nM in [2]; 5 nM in test [3]; 26 nM in test [4]; 29 nM in [5]; 24 nM in test [6]. Further, the values for the IC50 in test [7], in test [8] and in test [9] were 23 nM, 10 nM and 4 nM, respectively.
For `C[C@H](Oc1nc(-c2noc(C3(C)CCCc4sc(N)c(C#N)c43)n2)cc(N2C[C@@H]3C[C@H](C2)[C@H](O)C3)n1)[C@@H]1CCCN1C` (stereo partly drawn) [Example 5, 2-amino-4-(3-(6-((1R,5R,6R)-6-hydroxy-3-azabicyclo[3.2.1]octan-3-yl)-2-((S)-1-((S)-1-methylpyrrolidin-2-yl)ethoxy)pyrimidin-4-yl)-1,2,4-oxadiazol-5-yl)-4-methyl-4,5,6,7-tetrahydrobenzo[b]thiophene-3-carbonitrile], the IC50 in test [1] was determined as 413 nM; in test [2] it was 233 nM; in test [3], 62 nM; in test [4], 313 nM; in [5], 250 nM; in [6], 269 nM. In addition, the values for the IC50 in [7], in test [8] and in test [9] were 265 nM, 69 nM and 38 nM, respectively.
Turning to `C[C@H](Oc1nc(-c2noc(C3(C)CCCc4sc(N)c(C#N)c43)n2)cc(N2CCCn3nc(C(=O)N(C)C)cc3C2)n1)[C@@H]1CCCN1C` (stereo partly drawn) [Example 6, 5-(6-(5-(2-amino-3-cyano-4-methyl-4,5,6,7-tetrahydrobenzo[b]thiophen-4-yl)-1,2,4-oxadiazol-3-yl)-2-((S)-1-((S)-1-methylpyrrolidin-2-yl)ethoxy)pyrimidin-4-yl)-N,N-dimethyl-5,6,7,8-tetrahydro-4H-pyrazolo[1,5-a][1,4]diazepine-2-carboxamide], the IC50 in test [1] is 1830 nM; in [10], 7720 nM; in test [2], 1110 nM; in test [3], 746 nM; in [4], 1110 nM; in test [11], greater than 10000 nM. The IC50 turned out to be 1590 nM in [5]; 1080 nM in test [6]; 1520 nM in test [7]; 474 nM in test [8]; 669 nM in [9].
Regarding `C[C@H](Oc1nc(-c2cc(C3(C)CCCc4sc(N)c(C#N)c43)sn2)cc(N2CCC[C@@](C)(O)C2)n1)[C@@H]1CCCN1C` (stereo partly drawn) [Example 7, 2-amino-4-(3-(6-((R)-3-hydroxy-3-methylpiperidin-1-yl)-2-((S)-1-((S)-1-methylpyrrolidin-2-yl)ethoxy)pyrimidin-4-yl)isothiazol-5-yl)-4-methyl-4,5,6,7-tetrahydrobenzo[b]thiophene-3-carbonitrile], the IC50 stood at 127 nM in test [1]; 5840 nM in [10]; 170 nM in test [2]; 46 nM in test [3]; 174 nM in test [4]; 4470 nM in test [11]. Also, the IC50 in [5] worked out at 132 nM; in [6], 128 nM; in [7], 158 nM; in test [8], 129 nM; in [9], 23 nM.
On to `C[C@H](Oc1nc(-c2cc(C3(C)CCCc4sc(N)c(C#N)c43)sn2)cc(N2C[C@@H]3C[C@H](C2)[C@H](O)C3)n1)[C@@H]1CCCN1C` (stereo partly drawn) [Example 8, 2-amino-4-(3-(6-((1R,5R,6R)-6-hydroxy-3-azabicyclo[3.2.1]octan-3-yl)-2-((S)-1-((S)-1-methylpyrrolidin-2-yl)ethoxy)pyrimidin-4-yl)isothiazol-5-yl)-4-methyl-4,5,6,7-tetrahydrobenzo[b]thiophene-3-carbonitrile], for which the IC50 is 505 nM in test [1]; 7400 nM in [10]; 224 nM in test [2]; 96 nM in [3]; 275 nM in test [4]; 3380 nM in [11]. The IC50 in test [5] amounted to 204 nM; in test [6], 167 nM; in [7], 296 nM; in test [8] it was 160 nM; in test [9], 59 nM.
Consider `C[C@H](Oc1nc(-c2cc(C3(C)CCCc4sc(N)c(C#N)c43)sn2)cc(N2CCCC3(C2)NC(=O)NC3=O)n1)[C@@H]1CCCN1C` (stereo partly drawn) [Example 11, 2-amino-4-(3-(6-(2,4-dioxo-1,3,7-triazaspiro[4.5]decan-7-yl)-2-((S)-1-((S)-1-methylpyrrolidin-2-yl)ethoxy)pyrimidin-4-yl)isothiazol-5-yl)-4-methyl-4,5,6,7-tetrahydrobenzo[b]thiophene-3-carbonitrile], for which the IC50 worked out at 93 nM in test [1]; 263 nM in test [2]; 76 nM in [3]; 262 nM in test [4]; 240 nM in test [5]; 190 nM in [6]. In addition, the IC50 in [7] amounted to 188 nM; in test [8] it was 326 nM; in test [9], 34 nM.
Take `C[C@H](Oc1nc(-c2cc(C3(C)CCCc4sc(N)c(C#N)c43)sn2)cc(N2CCCn3nc(C(=O)N(C)C)cc3C2)n1)[C@@H]1CCCN1C` (stereo partly drawn) [Example 12, 5-(6-(5-(2-amino-3-cyano-4-methyl-4,5,6,7-tetrahydrobenzo[b]thiophen-4-yl)isothiazol-3-yl)-2-((S)-1-((S)-1-methylpyrrolidin-2-yl)ethoxy)pyrimidin-4-yl)-N,N-dimethyl-5,6,7,8-tetrahydro-4H-pyrazolo[1,5-a][1,4]diazepine-2-carboxamide]: the IC50 worked out at 623 nM in test [1]; 533 nM in [2]; 163 nM in test [3]; 457 nM in [4]; 551 nM in test [5]; 584 nM in test [6]. In addition, the IC50 in [7] was 596 nM; in test [8] it was 417 nM; in [9] it was 156 nM.
